For experiment [1], the target named is Human immunodeficiency virus type 1 protease (Human immunodeficiency virus 1) (UniProt Q72874). The experiment in a line: Percent inhibition of human immunodeficiency virus type I (HIV-1) protease was determined at 50 uM concentration.
Experiment [2] has as its target T1, Gag-Pro polyprotein (Human T-cell leukemia virus 1 (strain Japan ATK-1 subtype A) (HTLV-1)) (UniProt P10274).
T1 sequence (whole entry): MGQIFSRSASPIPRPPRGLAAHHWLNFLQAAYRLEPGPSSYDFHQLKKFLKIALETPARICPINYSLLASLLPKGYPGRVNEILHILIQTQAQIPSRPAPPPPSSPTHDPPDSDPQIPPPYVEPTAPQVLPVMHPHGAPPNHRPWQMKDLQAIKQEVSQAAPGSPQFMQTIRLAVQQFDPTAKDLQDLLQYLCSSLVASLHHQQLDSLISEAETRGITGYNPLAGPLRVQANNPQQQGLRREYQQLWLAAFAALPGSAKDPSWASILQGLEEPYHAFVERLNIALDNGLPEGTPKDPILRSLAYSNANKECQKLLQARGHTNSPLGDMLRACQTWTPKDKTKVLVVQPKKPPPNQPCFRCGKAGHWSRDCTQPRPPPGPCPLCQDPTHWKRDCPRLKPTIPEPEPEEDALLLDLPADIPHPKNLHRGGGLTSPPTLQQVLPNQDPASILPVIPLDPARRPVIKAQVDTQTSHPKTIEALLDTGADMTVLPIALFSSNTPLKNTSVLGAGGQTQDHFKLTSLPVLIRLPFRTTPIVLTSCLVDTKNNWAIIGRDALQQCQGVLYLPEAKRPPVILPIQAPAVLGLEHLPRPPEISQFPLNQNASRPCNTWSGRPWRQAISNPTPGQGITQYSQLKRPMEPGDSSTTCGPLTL
The experiment in a line: Percent inhibition of recombinant human T-cell leukemia virus type I (HTLV-1) protease was determined at 50 uM concentration. To be noted: Human T-cell lymphotrophic virus type 1 (strain ATK).

The target of experiment [3] is T1, Gag-Pro polyprotein (Human T-cell leukemia virus 1 (strain Japan ATK-1 subtype A) (HTLV-1)). The experiment in a line: Percent inhibition of synthesized human T-cell leukemia virus type I (HTLV-1) protease was determined at 50 uM concentration. To be noted: Human T-cell lymphotrophic virus type 1 (strain ATK).
For experiment [4] the target is unchanged. The experiment in a line: Percent inhibition of recombinant human T-cell leukemia virus type I (HTLV-1) protease was determined at 100 uM concentration. To be noted: human T-cell leukemia virus type 1.
The target is the same in experiment [5]. The experiment in a line: Percent inhibition of synthesized human T-cell leukemia virus type I (HTLV-1) protease was determined at 100 uM concentration. To be noted: human T-cell leukemia virus type 1.
Experiment [6] deals with T2, Gag-Pro polyprotein (Human T-cell leukemia virus 1 (strain Japan ATK-1 subtype A) (HTLV-1), UniProt P10274).
T2 sequence (P10274 whole entry): T1 sequence (whole entry)
The experiment in a line: Inhibitory binding affinity towards recombinant human T-cell leukemia virus type I (HTLV-1) protease. Also noted: species or system human T-cell leukemia virus type 1.

The target of experiment [7] is T2, Gag-Pro polyprotein. In words: Inhibitory binding affinity towards synthesized human T-cell leukemia virus type I (HTLV-1) protease. Also noted: species or system human T-cell leukemia virus type 1.

pKi: −log10 of the molar value. Starred links: 1 amine or outer side, 2 acyl side, 3 side chain; linkers in the order of their positions; H or OH if unused. Non-standard residues stand in square brackets, D forms with d. Residues, ends and D or L forms follow the SMILES beside them. X1 = O=C(C(O)[C@H](Cc1ccccc1)N[*:1])[*:2]; X2 = CC(C)C[C@H](N[*:1])C(O)C(=O)[*:2]; Thz(5,5-Me2) = CC1(C)SCN[C@@H]1C(=O)O

The term inhibition denotes the change of the read-out against control, counted positive when it falls. With `CSCC[C@H](NC(=O)[C@@H](NC(=O)[C@@H]1CCCN1C(=O)C(O)[C@H](Cc1ccccc1)NC(=O)[C@@H](NC(=O)[C@H](CCC(N)=O)NC(=O)[C@@H]1CCCN1)C(C)C)C(C)C)C(=O)N[C@@H](Cc1c[nH]cn1)C(=O)O` (stereo partly drawn) (H-PQV[X1]PVMH-OH), the inhibition came to 6% in experiment [1], 54% in experiment [2], 59% in experiment [3] and 94% in experiment [4].
On to `CC(C)c1nc(CN(C)C(=O)N[C@H](C(=O)N[C@@H](Cc2ccccc2)C[C@H](O)[C@H](Cc2ccccc2)NC(=O)OCc2cncs2)C(C)C)cs1`, for which the inhibition stood at 100% in experiment [1], 20% in experiment [4] and 20% in experiment [5].
In the case of `Cc1ccccc1CNC(=O)C1N(C(=O)C(O)C(Cc2ccccc2)NC(=O)c2cccc(O)c2C)CSC1(C)C` (stereo not drawn), the results for the inhibition in experiment [1], in experiment [4] and in experiment [5] were 96%, 31% and 79%, respectively.
The like results for `Cc1cccc(C)c1OCC(=O)NC(Cc1ccccc1)C(O)C(=O)N1CSC(C)(C)C1C(=O)NC(C)(C)C` (stereo not drawn) were, in that order, 96%, 43% and 32%.
`Cc1c(O)cccc1C(=O)NC(Cc1ccccc1)C(O)C(=O)N1CSC(C)(C)C1C(=O)NC(C)(C)C` (stereo not drawn): the figures for the inhibition in experiment [1], in experiment [4] and in experiment [5] were 88%, 38% and 57%, respectively.
For `Cc1ccccc1CNC(=O)C1N(C(=O)C(O)C(Cc2ccccc2)NC(=O)COc2c(C)cccc2C)CSC1(C)C` (stereo not drawn), the figures for the inhibition in experiment [1], in experiment [4] and in experiment [5] were 98%, 19% and 11%, respectively.
As to `CSCC[C@H](NC(=O)[C@@H](NC(=O)[C@@H]1CCCN1C(=O)C(O)[C@H](CC(C)C)NC(=O)[C@@H](NC(=O)[C@H](CCC(N)=O)NC(=O)[C@@H]1CCCN1)C(C)C)C(C)C)C(=O)N[C@@H](Cc1c[nH]cn1)C(=O)O` (stereo partly drawn) (H-PQV[X2]PVMH-OH), the inhibition in experiment [1] was 3%; in experiment [2], 43%; in experiment [3], 58%; in experiment [4] it was 93%.
The like results for `CSCC[C@H](NC(=O)[C@@H](NC(=O)[C@H]1N(C(=O)C(O)[C@H](Cc2ccccc2)NC(=O)[C@@H](NC(=O)[C@H](CCC(N)=O)NC(=O)[C@@H]2CCCN2)C(C)C)CSC1(C)C)C(C)C)C(=O)N[C@@H](Cc1c[nH]cn1)C(=O)O` (stereo partly drawn) (H-PQV[X1][Thz(5,5-Me2)]VMH-OH) were, in that order, 58%, 66%, 80% and 100%.
In general, pKi refers to −log10 of the Ki, conventionally taken in molar units. On to `CSCC[C@H](NC(=O)[C@@H](NC(=O)[C@H]1N(C(=O)C(O)[C@H](Cc2ccccc2)NC(=O)[C@@H](NC(=O)[C@H](CCC(N)=O)NC(=O)[C@@H]2CCCN2)C(C)C)CSC1(C)C)C(C)C)C(=O)N[C@@H](Cc1cnc[nH]1)C(=O)O` (stereo partly drawn) (H-PQV[X1][Thz(5,5-Me2)]VMH-OH), for which the pKi was 5.41 in experiment [6] and 5.70 in experiment [7].
In the case of `CC(C)CC(=O)N[C@H](C(=O)N[C@H](C(=O)N[C@@H](CC(C)C)[C@@H](O)CC(=O)N[C@@H](C)C(=O)N[C@@H](CC(C)C)[C@@H](O)CC(=O)O)C(C)C)C(C)C` [PEPSTATIN], the pKi is 4.84 in experiment [6] and 4.44 in experiment [7]. In addition, the inhibition was 23% in experiment [1], 17% in experiment [2] and 15% in experiment [3].
In the case of `CSCC[C@H](NC(=O)[C@@H](NC(=O)[C@H]1N(C(=O)C(O)[C@H](CC(C)C)NC(=O)[C@@H](NC(=O)[C@H](CCC(N)=O)NC(=O)[C@@H]2CCCN2)C(C)C)CSC1(C)C)C(C)C)C(=O)N[C@@H](Cc1c[nH]cn1)C(=O)O` (stereo partly drawn) (H-PQV[X2][Thz(5,5-Me2)]VMH-OH), the inhibition in experiment [1] stood at 37%; in experiment [2], 63%; in experiment [3] it was 76%; in experiment [4] it was 100%.

The values are drawn from ChEMBL document CHEMBL1137065, “Identification of peptidomimetic HTLV-I protease inhibitors containing hydroxymethylcarbonyl (HMC) isostere as the transition-state mimic” (Bioorg Med Chem Lett, 2004).
